The text below walks through data of paper PMC6291738, “Identification of novel HIV-1-derived HLA-E-binding peptides” (Immunology Letters, 2018).

“And” between values parts separate entries of the source, which are not always exact repeats. Equal values may be shown once.

The target of the first test is T1, HLA-E*01:03 (Homo sapiens, UniProt P13747).
Assay: not given
The note with it: summary of both assays.
NEEAAEWDR [NR9]: the “HLA-E binder classification across the SCT assay and the LCL721.221-HLA-E*01:03 assay (MFI over 4000)” value is reported as “positive stabilization signal in at least one of the two employed assays”.

As for QMAVFIHNF [QF9], the “HLA-E binder classification across the SCT assay and the LCL721.221-HLA-E*01:03 assay (MFI over 4000)” value is “positive stabilization signal in at least one of the two employed assays”.

Another test has as its target HLA-E*01:01 (Homo sapiens, UniProt P13747, G128R). In words: HLA-E/peptide cell-surface stabilization (binding) assay, RMA-S cells transfected with HLA-E*01:01. The class given is cell-based. More on the design: RMA-S cells expressing HLA-E*01:01 and E*01:03 were generated by transfecting the genes into the RMA-S cell line; expressed in transfected cells; host or cells: murine TAP-deficient RMA-S cells. The note with it: RMA-S cells with HLA-E*01:01 and human β2-microglobulin; overnight 26 °C, peptide 1 h 26 °C, 3 h 37 °C; peptide 100 μg/ml; Index = (Sample 37 °C – No peptide 37 °C)/(Sample 26 °C – No peptide 26 °C); flow cytometry. As to the method: (§1) Binding of PM9 to both HLA-E*01:01 and –E*01:03 alleles was assessed using an HLA-E/peptide cell-surface stabilization assays. Thus, murine RMA-S cells deficient in transporter associated with antigen processing (TAP) were stably transfected with one of the two HLA-E alleles together with human β2-microglobuline. Then, stabilization of HLA-E/PM9 and HLA-E/VL9 complexes was compared in peptide-titration analyses using peptide concentrations ranging from 0.01 μg/ml to 100 μg/ml by growing transfected RMA-S cells overnight at 26 °C, pulsing them with peptide for 1 h and transferring them to 37 °C for 3 additional hours. Weak half-maximal effective concentrations (EC50) of over 100 μM were indicated for the interaction of PM9 with the two HLA-E*01:01 and E*01:03 molecules (Fig. 1A).
Take GHQAAMQMLKDTINE: the “Cell-Surface Stabilization Index E*01:01” value was found to be 0.27.

On to “GHQAAMQMLKETINE [C032, tHIVconsvX 15-mer peptide […]]”, for which the “Cell-Surface Stabilization Index E*01:01” value turned out to be 0.16. Turning to “INEEAAEWDRLHPVH [C038, tHIVconsvX 15-mer peptide […]]”, the “Cell-Surface Stabilization Index E*01:01” value is reported as 0.20.

Take “INEEAAEWDRVHPVH [C037, tHIVconsvX 15-mer peptide […]]”: the “Cell-Surface Stabilization Index E*01:01” value is given as 0.30.

For the sequence IVRMYSPTSILDIKQ, the “Cell-Surface Stabilization Index E*01:01” value is listed as 0.03. Take “PQDLNMMLNIVGGHQ [C026, tHIVconsvX 15-mer peptide […]]”: the “Cell-Surface Stabilization Index E*01:01” value is 0.25. Same read-out and setting: to “PQDLNTMLNTVGGHQ [C025, tHIVconsvX 15-mer peptide […]]” belongs 0.32; to “QMAVFIHNFKRKGGI [C352, tHIVconsvX 15-mer peptide […]]”, 0.26. As to “QMAVLIHNFKRRGGI [C353, tHIVconsvX 15-mer peptide […]]”, the “Cell-Surface Stabilization Index E*01:01” value came to 0.17. Same read-out and setting: to “SALSEGATPQDLNMM [C022, tHIVconsvX 15-mer peptide […]]” belongs 0.14; to “TEEKIKALTEICKEM [C182, tHIVconsvX 15-mer peptide […]]”, 0.33. Take “VYYRDSRDPIWKGPA [C376, tHIVconsvX 15-mer peptide […]]”: the “Cell-Surface Stabilization Index E*01:01” value was found to be 0.22. The same measure, in the same setting: then “VYYRDSRDPLWKGPA [C377, tHIVconsvX 15-mer peptide […]]”, with 0.17. Take “YFSVPLDESFRKYTA [C226, tHIVconsvX 15-mer peptide […]]”: the “Cell-Surface Stabilization Index E*01:01” value was −0.15. Same read-out and setting: then “YFSVPLDKDFRKYTA [C227, tHIVconsvX 15-mer peptide […]]”, with 0.21.

The target in a further test is T1, HLA-E*01:03. The test can be described thus: HLA-E/peptide cell-surface stabilization (binding) assay, RMA-S cells transfected with HLA-E*01:03. On the set-up: RMA-S cells expressing HLA-E*01:01 and E*01:03 were generated by transfecting the genes into the RMA-S cell line; expressed in transfected cells; host or cells: murine TAP-deficient RMA-S cells. The note with it: RMA-S cells with HLA-E*01:03 and human β2-microglobulin; overnight 26 °C, peptide 1 h 26 °C, 3 h 37 °C; peptide 100 μg/ml; Index = (Sample 37 °C – No peptide 37 °C)/(Sample 26 °C – No peptide 26 °C); mean ± SD n=3; SD. The class given is cell-based. As to the method: as §1
For the sequence GHQAAMQMLKDTINE, the “Cell-Surface Stabilization Index E*01:03 ± SD” value was 0.455 ± 0.033. Same read-out and setting: to “GHQAAMQMLKETINE [C032, tHIVconsvX 15-mer peptide […]]” belongs 0.480 ± 0.057. As for “INEEAAEWDRLHPVH [C038, tHIVconsvX 15-mer peptide […]]”, the “Cell-Surface Stabilization Index E*01:03 ± SD” value was determined as 0.389 ± 0.039. The same measure, in the same setting: to “INEEAAEWDRVHPVH [C037, tHIVconsvX 15-mer peptide […]]” belongs 0.419 ± 0.031; to IVRMYSPTSILDIKQ, 0.518 ± 0.033; to “PQDLNMMLNIVGGHQ [C026, tHIVconsvX 15-mer peptide […]]”, 0.429 ± 0.037. Same read-out and setting: then “PQDLNTMLNTVGGHQ [C025, tHIVconsvX 15-mer peptide […]]”, with 0.431 ± 0.038; and “QMAVFIHNFKRKGGI [C352, tHIVconsvX 15-mer peptide […]]”, with 0.641 ± 0.051. With “QMAVLIHNFKRRGGI [C353, tHIVconsvX 15-mer peptide […]]”, the “Cell-Surface Stabilization Index E*01:03 ± SD” value stood at 0.632 ± 0.065. The same measure, in the same setting: then “SALSEGATPQDLNMM [C022, tHIVconsvX 15-mer peptide […]]”, with 0.382 ± 0.027; and “TEEKIKALTEICKEM [C182, tHIVconsvX 15-mer peptide […]]”, with 0.463 ± 0.085. For “VYYRDSRDPIWKGPA [C376, tHIVconsvX 15-mer peptide […]]”, the “Cell-Surface Stabilization Index E*01:03 ± SD” value was 0.366 ± 0.044.

In the case of “VYYRDSRDPLWKGPA [C377, tHIVconsvX 15-mer peptide […]]”, the “Cell-Surface Stabilization Index E*01:03 ± SD” value came to 0.353 ± 0.039. With “YFSVPLDESFRKYTA [C226, tHIVconsvX 15-mer peptide […]]”, the “Cell-Surface Stabilization Index E*01:03 ± SD” value came out at 0.669 ± 0.010. Still for that read-out and setting: to “YFSVPLDKDFRKYTA [C227, tHIVconsvX 15-mer peptide […]]” belongs 0.618 ± 0.042.

The same test, now with this note: VL9 (VMAPRTLVL) positive control of the experimental day; RMA-S cells with HLA-E*01:03.
On to VMAPRTLVL [VL9, reference compound], for which the “Cell-Surface Stabilization Index E*01:03/VL9” value is 2.572 and 2.369 and 2.600 and 2.281.
